Consider two molecules from patent publication US11213495B2, “Method and composition for decreasing the psychotomimetic side effect and addictive disorder of ketamine” (NATIONAL HEALTH RESEARCH INSTITUTES, priority 2016, dated 2022).

Common to all, as to type: in vivo
The subject of data set [1] is Male ICR mice. The data set is described as follows: Forced swimming test (FST) scored by time-sampling method. To be noted: day 1 and 8, post hoc vs control. The protocol: FST was conducted for two consecutive days. Mice were placed in a Plexiglas cylinder (33.5 cm height, 20 cm diameter) filled with 25±2° C. water to a height of 18-20 cm. For the first exposure, mice were placed in the water for 15 min (pre-test session) followed by […]. Twenty-four hours later (day 1 test session), various doses of test drug (at 0, 30 and 100 mg/kg) was administered 30 min prior to the ketamine (10 mg/kg) or saline. Then, the mice were tested 30 min after ketamine injection which placed in the water again for a 6 min session (test session), the first 2 minutes has elapsed. Immobility was assigned when no additional activity was observed other than that required to keep the head above the water.
The acute and sustained effects of various doses of ketamine (3, 10, 15 mg/kg) and betaine (10, 20, 30 mg/kg) on FST were assessed on day 1 and 8, respectively (FIGS. 1A and 1B). […] There was no significant effect of test session or interaction.

For data set [2], the system named is Male ICR mice. The data set is described as follows: Novelty suppressed feeding test (NSF). The following applies: 1 h prior to test, vs saline-treated mice. As to the method:
NSF test consisted of food-depriving mice overnight (24 hours). The test drug (10, 20 and 30 mg/kg), ketamine (10 mg/kg) or saline was administered 1 h prior to the test. At the time of testing, a single food pellet placed in the middle of a novel environment (a test box 40×40×40 cm). The latency to start feeding was used as a measure for depressive-like or anxiety-like behavior.

Data set [3] deals with Male ICR mice. The experiment in a line: Emergence test. The protocol: The emergence test was examined in a test box (35×35×30 cm) contained an aluminum cylinder (10 cm deep×6.5 cm diameter) located lengthwise along one wall, with the open end 10 cm from the corner. The test drug (0, 30 and 100 mg/kg) or ketamine (10 mg/kg) was administered 30 min prior to the test. Mice were placed into the cylinder and tested for 10 min and scored three behavioral parameters: the latency to leave the cylinder, the number of entries into the cylinder and the total time spent inside the cylinder.

The test system of data set [4] is Male ICR mice. The data set is described as follows: Rotarod test (motor coordination). As to the method: Motor coordination was examined using an automated rotarod device (Singa; Technology Co., Ltd, Taiwan) for a maximum of 6 mice. A computer recorded the latency to fall in seconds. During two-three days training period, the mice were first trained on the rotarod at a constant speed of 20 rotations per minute (rpm) until all of the mice were able to spend at least 3 min on the road. The test drug (0, 30 and 100 mg/kg) was administered 30 min prior to the ketamine (30 mg/kg) or saline injection. Then, the mice were tested 10, 15, 20, 25, and 30 min after ketamine injection.

For data set [5], the system named is Male ICR mice. The data set is described as follows: Novel object recognition test (NORT). As to the method:
The novel location recognition test (NLRT) and novel object recognition test (NORT) were examined in a Plexiglas open field box (35×35×30 cm) located in a sound-attenuated room and illuminated with a 20-W light bulb. The novel location and novel object recognition procedure consisted of habituation, training, and retention sessions. Habituation was conducted in two consecutive daily sessions, during which each mouse was allowed to individually explore the box in the absence of objects for 20 min. The animal is then removed from the arena and placed in its home cage. During the sample phase, each animal was placed in the box, and after 5 min, two identical sample objects (A+A) were simultaneously introduced in two corners. Each animal was allowed to explore the objects for 5 min. An animal was considered to explore the object when its head was facing the object at a distance of approximately 1 cm or less between the head and object or when it was touching or sniffing the object. The time spent exploring each object was recorded using stopwatches by an experimenter blind to the treatment condition.
After the sample phase, the mice were immediately returned to their home cages. The novel location recognition test was conducted 30 min after the training session. The animals were returned to the same box as during the sample phase, and one of the two objects was replaced with a novel local corner (A+A′) to test the location-based recognition memory. After 24 hours, novel object recognition test was performed. The mice are allowed to explore the open field with one identical sample object and a novel object to assess the novel object recognition memory (A+B). The animals were allowed to explore the box freely for 5 min, and the time spent exploring each object was recorded as described above. The objects and chambers were cleaned with 70% ethanol after each use. A preference index, a ratio of the amount of time spent exploring the original object or the novel location/object over the total time spent exploring both objects, was used to evaluate recognition memory. […]

The test system of data set [6] is Male ICR mice. The data set is described as follows: Social interaction test. The protocol: This protocol was modified from the original social interaction test (Lin et al. 2010; Qiao et al. 2001). The social interaction between pairs of mice was examined in an open-field box (35×35×30 cm) under normal room lighting. The paired mice were randomly assigned from different home cages with the same drug treatment. […] Five minutes later, each pair of unfamiliar mice was placed in the apparatus for 10 min and the total time that a pair spent in social interaction and specific social interaction behaviors (sniffing the partner, following, mounting, and crawling under or over the partner) were recorded by an observer who was blind to the drug treatments.

Data set [7] deals with Male ICR mice. The experiment in a line: Open field test / locomotor activity. As to the method: To evaluate the effect of DMG on ketamine-induced locomotor hyperactivity, the animals were moved from the home cage, weighed and placed into an activity cage (Columbus Auto-Track System, Version 3.0 A, Columbus Institute, Columbus, Ohio, USA) for 2 hours. Thereafter, the test drug (0, 30, and 100 mg/kg) was given 30 min prior to ketamine (30 mg/kg) or saline. The distance (cm) traveled was recorded for totally 180 min. A 70% alcohol solution was used to clean the inner surface of all the testing apparatus between trials to remove any potentially interfering odors left by the previous mouse.

[8] abbreviates: betaine 30 and 100 mg/kg alone, 60 min after administration.

Turning to `CNC1(c2ccccc2Cl)CCCCC1=O` (racemic) [ketamine], in the data set on Male ICR mice [1] (ketamine 3, 10 and 15 mg/kg), the “count of immobility in FST” value is recorded as “significantly decreased”. Further, in the data set with Male ICR mice [2] (ketamine 10 mg/kg), the “latency to feed in the NSF” value is “significantly reduced”. The “total time spent inside the cylinder” value with Male ICR mice [3] (ketamine 10 mg/kg, post hoc) is reported as “significantly reduced”. Besides, the “latency to stay on the rotarod” value in the data set with Male ICR mice [4] (ketamine 30 mg/kg, 10-30 min after administration) was “significantly decreased”. Besides, the recognition index result in the data set with Male ICR mice [5] (ketamine 30 mg/kg, retention session (24 h)) is listed as “significantly reduced”. In the data set on Male ICR mice [6] (ketamine 30 mg/kg), the social interaction duration result is reported as “reduction”. Also, the “total travel distances after ketamine administration” value with Male ICR mice [7] (ketamine 30 mg/kg, measured for 30 min) is “increased”.
`C[N+](C)(C)CC(=O)O` [betaine]: the “count of immobility in FST” value in the data set on Male ICR mice [1] (betaine 20 and 30 mg/kg) is listed as “significantly decreased”. Moreover, the “latency to feed in the NSF” value in the data set with Male ICR mice [2] (betaine 30 mg/kg i.p.) was “significantly reduced”. Also, the “anxiolytic effect in the emergence test” value in the data set on Male ICR mice [3] (betaine 30 and 100 mg/kg) is reported as “did not show anxiolytic effect”. The “ketamine-induced motor in coordination” value in the data set on Male ICR mice [4] (betaine 30 and 100 mg/kg i.p. 30 min prior to ketamine 30 mg/kg) is “significantly reduced”. The “recognition impairing effects of ketamine” value in the data set on Male ICR mice [5] (betaine 30 and 100 mg/kg 30 min prior to ketamine 30 mg/kg, retention session) is given as “significantly reversed”. In the data set with Male ICR mice [6] (betaine 30 and 100 mg/kg i.p. prior to ketamine 30 mg/kg), the “reduction in social interaction duration induced by ketamine” value is “significantly attenuated”. Also, in the data set on Male ICR mice [7] (betaine 30 and 100 mg/kg 30 min prior to ketamine 30 mg/kg), the ketamine-induced locomotor hyperactivity result is “not affected”. In addition, in the data set on Male ICR mice [7] (setting [8]), the time in center entry is listed as “did not affect” and the “travel distances (locomotor activity)” value is on record as “did not affect”.
